{"source": "patent US8299097B2", "about": "“Methods for treating inflammatory disorders” (The Brigham and Women's Hospital, Inc., priority 2008, dated 2012)", "key": {"[1]": {"target": "P2Y12 receptors (Mus musculus, UniProt Q9CPV9)", "sequence (Q9CPV9 whole entry)": "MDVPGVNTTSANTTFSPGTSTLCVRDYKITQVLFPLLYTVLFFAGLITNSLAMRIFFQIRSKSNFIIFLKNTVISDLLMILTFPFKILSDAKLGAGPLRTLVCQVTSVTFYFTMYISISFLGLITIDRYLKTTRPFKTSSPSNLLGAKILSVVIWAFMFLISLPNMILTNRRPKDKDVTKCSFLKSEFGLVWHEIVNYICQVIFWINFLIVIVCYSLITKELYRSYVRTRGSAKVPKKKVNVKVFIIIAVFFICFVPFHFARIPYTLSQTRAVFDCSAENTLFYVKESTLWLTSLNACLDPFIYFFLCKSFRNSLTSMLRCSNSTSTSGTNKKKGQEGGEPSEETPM", "assay": "Clopidogrel effect on LTE4-mediated amplification of OVA-induced pulmonary inflammation", "assay_type": "in vivo", "design": "from tissue; host or cells: whole animal: BALB/c (OVA model) and C57BL/6 (Der f model) mice", "details": "whole lung RNA 24 h after last OVA challenge", "method": "(§1) FIG. 4. […] 4A. […] Clopidogrel (500 μg/ml) was added to the drinking water of the indicated groups of mice for 72 h before the first intranasal dose of LTs, and was maintained throughout the treatment. Results are mean±SEM from at least 9 mice in each group. The experiments were repeated three times with similar results. 4B. PAS stains (left column) from representative mice in the indicated groups showing the effect of clopidigrel on goblet cell metaplasia. Higher magnification images of H & E stains (right) from the same animals showing cellular characteristics of the bronchovascular infiltrates. 4C. Effect of clopidogrel administration on the steady-state expression of IL-13 and MUC5AC mRNA as determined by real-time PCR of whole lung RNA extracted 24 h after the last OVA challenge of the indicated groups. Data are mean±SEM from 4-5 mice/group from a single experiment. Results in a second experiment were similar 4D-4F. […] 4D. Total cell numbers (top), percentages of eosinophils (middle), and total numbers of eosinophils in BAL fluid recovered 24 h after the last challenge with OVA. 4E. Goblet cell metaplasia (top) and representative PAS stains (bottom) from wild-type and p2ry12^−/− mice subjected to the same protocol. 4E. Inflammation scores from the same mice. Data in 4D-4F are from 4 mice per group. Results in a second experiment were similar 4G. BALB/c Cysltr1/Cysltr2^−/− mice and age-matched WT controls were subjected to the same protocol as the p2ry12^−/− mice. Total cell numbers (top), percentages of eosinophils (middle), and total numbers of eosinophils in BAL fluid recovered 24 h after the last challenge with OVA. Results are from 6 mice per group. Three experiments were performed with similar results. 4H. Goblet cell numbers (top) and representative PAS stains (bottom). 4I. Quantitative assessment of bronchovascular inflammation as determined by H & E stains. Results are from 6 mice/group.\nFIG. 5. Effect of clopidogrel on LTE4-mediated amplification of pulmonary inflammation. 5A. […] The indicated mice were treated with clopidogrel for 72 h before the first dose of leukotriene. Results are mean±SEM from a minimum of 9 mice in each group. 5B. PAS stains (left column) from representative mice in the indicated groups showing the effect of clopidigrel on goblet cell metaplasia. Higher magnification images of H & E stains (right) from the same animals showing cellular characteristics of the bronchovascular infiltrates. 5C. Effect of clopidogrel administration on the steady-state expression of IL-13 and MUC5AC mRNA as determined by real-time PCR of whole lung RNA extracted 24 h after the last OVA challenge of the indicated groups. Data are mean±SEM from 4-5 mice/group. […]"}, "[2]": {"tested_on": "CHO cells expressing CysLT1R, CysLT2R, or P2Y12 receptors", "assay": "Calcium flux in Fura-2-AM-loaded CHO transfectants", "assay_type": "cell-based, human", "details": "LTE4 500 nM, ADP 100 μM; ADP response reflects endogenous P2Y receptors"}, "[3]": {"tested_on": "p2ry12^−/− mice", "assay": "LTE4 amplification of pulmonary inflammation in p2ry12^−/− mice and C57BL/6 controls", "assay_type": "in vivo, mouse", "method": "as §1, with “Results in a second experiment were similar 4G. BALB/c Cysltr1/Cysltr2^−/− mice and age-matched WT controls were subjected to the same protocol as the p2ry12^−/− mice. Total cell numbers (top), percentages of eosinophils (middle), and total numbers of eosinophils in BAL fluid recovered 24 h after the last challenge with OVA. Results are from 6 mice per group. Three experiments were performed with similar results. 4H. Goblet cell numbers (top) and representative PAS stains (bottom). 4I.” left out, “Results are from 6 mice/group.” left out"}}}
{"smiles": "CCCCC/C=C\\C\\C=C/C=C/C=C/[C@@H](SC[C@H](N)C(=O)O)[C@@H](O)CCCC(=O)O", "note": "[LTE4]", "values": [{"measurement": "lung expression of IL-13 and MUC5AC mRNA (real-time PCR)", "setting": "[1]", "result": "tended to increase the expression of both transcripts"}, {"measurement": "calcium flux", "setting": "[2]", "result": "failed to flux calcium"}, {"measurement": "potentiation of BAL fluid eosinophilia, goblet cell metaplasia and bronchovascular infiltration", "setting": "[3]; WT C57BL/6 controls", "result": "potentiated"}, {"measurement": "potentiation of BAL fluid eosinophilia, goblet cell metaplasia and bronchovascular infiltration", "setting": "[3]; p2ry12^−/− mice", "result": "severely blunted"}]}
